According to ChEMBL document CHEMBL4715908, “Design, synthesis, characterization, and anticancer activity of a novel series of O-substituted chalcone derivatives” (Bioorg Med Chem Lett, 2021):

What was measured:
[1] = Cytotoxicity against human MDA-MB-231/BCRP cells assessed as reduction in cell viability after 72 hrs by RRA assay; type: functional, cell-based
HepG2 [2] = assay: Cytotoxicity against human HepG2 cells assessed as reduction in cell viability after 72 hrs by RRA assay; type: functional, cell-based; settings: HepG2, 72 h
MDA-MB-231 = assay: Cytotoxicity against human MDA-MB-231 pcDNA cells assessed as reduction in cell viability after 72 hrs by RRA assay; type: functional, cell-based; settings: MDA-MB-231, 72 h
[3] = Cytotoxicity against human U87.deltaEGFR cells assessed as reduction in cell viability after 72 hrs by RRA assay; type: functional, cell-based; settings: U87MG.deltaEGFR
[4] = Selectivity index, ratio of IC50 for cytotoxicity against mouse AML12 cells to IC50 for cytotoxicity against human HepG2 cells
[5] = Resistant index, ratio of IC50 for cytotoxicity against human CEM/ADR5000 cells to IC50 for cytotoxicity against human CCRF-CEM cells; type: functional
ADR5000 cell line = assay: Cytotoxicity against human CEM/ADR5000 cells assessed as reduction in cell viability after 72 hrs by RRA assay; type: functional, cell-based; settings: ADR5000, 72 h
U-87 MG = assay: Cytotoxicity against human U87 cells assessed as reduction in cell viability after 72 hrs by RRA assay; type: functional, cell-based, U-87MG ATCC
[6] = Cytotoxicity against mouse AML12 cells assessed as reduction in cell viability after 72 hrs by RRA assay; type: cell-based; settings: AML12, 72 h
[7] = Resistant index, ratio of IC50 for cytotoxicity against human HCT-116 p53-/- cells to IC50 for cytotoxicity against human HCT-116 p53+/+ cells
[8] = Resistant index, ratio of IC50 for cytotoxicity against human U87MG.deltaEGFR cells to IC50 for cytotoxicity against human U87 cells; type: functional
HCT-116 [9] = assay: Cytotoxicity against human HCT-116 p53-/- cells assessed as reduction in cell viability after 72 hrs by RRA assay; type: functional, cell-based; settings: HCT-116, 72 h
[10] = Resistant index, ratio of IC50 for cytotoxicity against human MDA-MB-231/BCRP cells to IC50 for cytotoxicity against human MDA-MB-231 pcDNA cells; type: functional
CCRF-CEM = assay: Cytotoxicity against human CCRF-CEM cells assessed as reduction in cell viability after 72 hrs by RRA assay; type: functional, cell-based
HCT-116 [11] = assay: Cytotoxicity against human HCT-116 p53+/+ cells assessed as reduction in cell viability after 72 hrs by RRA assay; type: functional, cell-based; settings: HCT-116, 72 h
[12] = Resistant index, ratio of IC50 for cytotoxicity against human HCT-116 p53+/+ cells to IC50 for cytotoxicity against human HCT-116 p53-/- cells; type: functional
HepG2 [13] = assay: Cytotoxicity against human HepG2 cells assessed as reduction in cell viability after 72 hrs by SRB assay; type: functional, cell-based; settings: HepG2, 72 h
HL-60 = assay: Cytotoxicity against human HL-60 cells assessed as reduction in cell viability after 72 hrs by SRB assay; type: functional, cell-based; settings: HL-60, 72 h
MCF7 = assay: Cytotoxicity against human MCF7 cells assessed as reduction in cell viability after 72 hrs by SRB assay; type: functional, cell-based; settings: MCF7, 72 h
DU-145 = assay: Cytotoxicity against human DU-145 cells assessed as reduction in cell viability after 72 hrs by SRB assay; type: functional, cell-based; settings: DU-145, 72 h
THP-1 = assay: Cytotoxicity against human THP-1 cells assessed as reduction in cell viability after 72 hrs by SRB assay; type: functional, cell-based; settings: THP-1, 72 h

Structure (SMILES) | IC50 [1] [µM] | IC50 (HepG2 [2]) [µM] | IC50 (MDA-MB-231) [µM] | IC50 [3] [µM] | Ratio IC50 [4] | Ratio IC50 [5] | IC50 (ADR5000 cell line) [µM] | IC50 (U-87 MG) [µM] | IC50 [6] [µM] | Ratio IC50 [7] | Ratio IC50 [8] | IC50 (HCT-116 [9]) [µM] | Ratio IC50 [10] | IC50 (CCRF-CEM) [µM] | IC50 (HCT-116 [11]) [µM] | other results
C=CCOc1ccc(C=O)cc1OC | 7.53 | 10.5 | 15 | 6.97 | 1.46 | 0.25 | 3.48 | 7.5 | 15.3 | 1.39 | 0.93 | 8.02 | 0.5 | 14 | 5.77 | 
C#CCOc1ccc(C(CC(=O)c2cccc(Br)c2)CC(=O)c2cccc(Br)c2)cc1OC |  |  |  |  |  |  |  |  |  |  |  |  |  | > 50 |  | 
C#CCOc1ccc(/C=C/C(=O)c2ccc(C)cc2)cc1OC |  |  |  |  |  |  |  |  |  |  |  |  |  | > 50 |  | 
C#CCOc1ccc(/C=C/C(=O)c2ccc(C(C)C)cc2)cc1OC | 2.93 | 6.31 | 4.07 | 2.12 | 1.57 | 0.23 | 2.72 | 2.84 | 9.91 |  | 0.75 | 3.13 | 0.72 | 11.8 | 3.7 | Ratio IC50 [12]: 0.85
C#CCOc1ccc(C(=O)/C=C/c2ccc(OCC=C)c(OC)c2)cc1CC=C |  |  |  |  |  |  |  |  |  |  |  |  |  | > 50 |  | 
C#CCOc1ccc(C(C)=O)cc1CC=C |  |  |  |  |  |  |  |  |  |  |  |  |  | 38.2 |  | 
C#CCOc1ccc(C(CC(=O)c2cccc(C)c2)CC(=O)c2cccc(C)c2)cc1OC |  |  |  |  |  |  |  |  |  |  |  |  |  | > 50 |  | 
C=CCOc1ccc(/C=C/C(=O)c2ccc(OCC=C(C)C)c(CC=C)c2)cc1OC |  |  |  |  |  |  |  |  |  |  |  |  |  | > 50 |  | 
C=CCOc1ccc(/C=C/C(=O)c2ccccc2C)cc1OC |  |  |  |  |  |  |  |  |  |  |  |  |  |  |  | IC50 (HepG2 [13]): 10.1 µM; IC50 (HL-60): 7.9 µM; IC50 (MCF7): 10.3 µM; IC50 (DU-145): 5.21 µM; IC50 (THP-1): 4.76 µM
C#CCOc1ccc(/C=C/C(=O)c2ccc(OC)c(OC)c2)cc1OC | 1.89 | 5.98 | 13.6 | 1.56 | 1.13 | 0.17 | 1.44 | 2.86 | 6.75 | 0.16 | 0.55 | 0.32 | 0.14 | 8.65 | 2.01 | 
C#CCOc1ccc(/C=C/C(=O)c2cccn2C)cc1OC |  |  |  |  |  |  |  |  |  |  |  |  |  | > 50 |  | 
C=CCOc1ccc(/C=C\C(=O)c2ccc(OCC=C(C)C)c(CC=C)c2)cc1OC |  |  |  |  |  |  |  |  |  |  |  |  |  | > 50 |  | 
C#CCOc1ccc(/C=C/C(=O)c2ccn(C)c2)cc1OC |  |  |  |  |  |  |  |  |  |  |  |  |  | > 50 |  | 
C#CCOc1ccc(C=O)cc1OC |  |  |  |  |  |  |  |  |  |  |  |  |  | > 50 |  | 
C#CCOc1ccc(/C=C/C(=O)c2cccc(Br)c2)cc1OC | 3.09 | 10.1 | 3.5 | 4.16 | 1.24 | 0.15 | 2.28 | 2.59 | 12.5 | 0.66 | 1.61 | 1.9 | 0.88 | 15.2 | 2.9 | 
C#CCOc1ccc(/C=C/C(=O)c2ccc(-n3ccnc3)cc2)cc1OC | 1.74 | 5.39 | 2.03 | 1.08 | 2.36 | 0.07 | 1 | 1.41 | 12.7 | 0.86 | 0.77 | 0.67 | 0.86 | 15 | 0.78 | 
C#CCOc1ccc(/C=C/C(=O)c2ccccc2C)cc1OC | 0.99 | 2.64 | 14.8 | 1.21 | 3.11 | 0.13 | 0.92 | 2.1 | 8.2 | 0.64 | 0.58 | 1.06 | 0.07 | 6.95 | 1.66 | 
C#CCOc1ccc(/C=C/C(=O)c2cccc(OC)c2)cc1OC | 1.23 | 5.54 | 13.8 | 1.33 | 2.05 | 0.2 | 1.1 | 1.46 | 11.4 | 0.53 | 0.91 | 1.01 | 0.09 | 5.59 | 1.92 | 
C#CCOc1ccc(/C=C/C(=O)c2ccc(CC=C(C)C)cc2)cc1OC |  |  |  |  |  |  |  |  |  |  |  |  |  | > 50 |  | 
C#CCOc1ccc(/C=C/C(=O)c2cccc(C)c2)cc1OC | 1.77 | 5.03 | 2.03 | 1.97 | 2.24 | 0.16 | 1.38 | 1.8 | 11.3 | 0.77 | 1.09 | 1.06 | 0.87 | 8.82 | 1.38 | 
C#CCOc1ccc(/C=C/C(=O)c2ccc3c(c2)OCO3)cc1OC |  |  |  |  |  |  |  |  |  |  |  |  |  | > 50 |  | 
COc1cccc2c1C(=O)c1c(O)c3c(c(O)c1C2=O)C[C@@](O)(C(=O)CO)C[C@@H]3O[C@H]1C[C@H](N)[C@H](O)[C@H](C)O1 [DOXORUBICIN] | 0.79 | 4.56 | 0.13 | 0.98 |  |  |  | 0.26 | 52.9 |  |  | 1.78 |  | 0.02 |  | 
C=CCc1cc(C(C)=O)ccc1OCC=C(C)C | 11.9 | 14.7 | 17.9 | 12.2 | 1.23 | 0.32 | 5.25 | 12.9 | 18.1 | 1.31 | 0.94 | 14 | 0.67 | 16.2 | 10.6 | 
